Experiment: xn = mol fraction of the nth substance listed
Conditions: 298 K, 101 kPa

CCCC[n+]1ccn(C)c1.O=S(=O)([N-]S(=O)(=O)C(F)(F)F)C(F)(F)F + CC#N
Conditions | electrical conductivity [S/m] | viscosity [mPa·s]
x2 = 0.1027 | 0.514 | –
x2 = 0.1028 | – | 39.6
x2 = 0.1514 | 0.567 | –
x2 = 0.2513 | 0.72 | –
x2 = 0.3638 | – | 17.8
x2 = 0.4169 | 1.08 | –
x2 = 0.5016 | 1.37 | –
x2 = 0.5238 | – | 9.4
x2 = 0.8396 | 3.67 | –
x2 = 0.9485 | 4.03 | –
x2 = 0.9667 | 3.41 | –
x2 = 0.9794 | 2.69 | –

CCCC[n+]1ccn(C)c1.O=S(=O)([N-]S(=O)(=O)C(F)(F)F)C(F)(F)F + CC(C)(C)O
Conditions | viscosity [mPa·s]
x2 = 0 | 50.4

CCCC[n+]1ccn(C)c1.O=S(=O)([N-]S(=O)(=O)C(F)(F)F)C(F)(F)F + CCCCO
Conditions | electrical conductivity [S/m] | viscosity [mPa·s]
x2 = 0.0121 | 0.408 | –
x2 = 0.1048 | – | 41.5
x2 = 0.1229 | 0.477 | –
x2 = 0.3394 | 0.578 | –
x2 = 0.3437 | – | 22.9
x2 = 0.4228 | 0.633 | –
x2 = 0.4428 | 0.667 | –
x2 = 0.5066 | – | 15.2
x2 = 0.518 | 0.677 | –
x2 = 0.545 | 0.677 | –
x2 = 0.5556 | 0.676 | –
x2 = 0.5882 | 0.675 | –
x2 = 0.608 | 0.674 | –
x2 = 0.6656 | 0.66 | –
x2 = 0.6796 | 0.67 | –
x2 = 0.7193 | – | 8.92
x2 = 0.7316 | 0.59 | 8.55
x2 = 0.7458 | 0.57 | –
x2 = 0.7645 | 0.56 | –
x2 = 0.7951 | 0.507 | –
x2 = 0.8487 | 0.401 | –
x2 = 0.8618 | – | 5.83
x2 = 0.878 | 0.349 | –

CC#N + CCCC[n+]1ccn(C)c1.O=S(=O)([N-]S(=O)(=O)C(F)(F)F)C(F)(F)F
Conditions | viscosity [mPa·s]
x1 = 1 | 0.37

CC(C)(C)O + CCCC[n+]1ccn(C)c1.O=S(=O)([N-]S(=O)(=O)C(F)(F)F)C(F)(F)F
Conditions | electrical conductivity [S/m] | viscosity [mPa·s]
x1 = 0.2367 | – | 35.8
x1 = 0.3616 | 0.485 | –
x1 = 0.401 | 0.488 | –
x1 = 0.4577 | 0.497 | –
x1 = 0.4791 | 0.5 | –
x1 = 0.5125 | 0.503 | –
x1 = 0.5277 | – | 20.8
x1 = 0.538 | 0.507 | –
x1 = 0.5851 | 0.505 | –
x1 = 0.7215 | 0.476 | –
x1 = 0.785 | 0.377 | –
x1 = 1 | – | 3.41

CCCCO + CCCC[n+]1ccn(C)c1.O=S(=O)([N-]S(=O)(=O)C(F)(F)F)C(F)(F)F
Conditions | viscosity [mPa·s]
x1 = 1 | 2.6

CO + CCCC[n+]1ccn(C)c1.O=S(=O)([N-]S(=O)(=O)C(F)(F)F)C(F)(F)F
Conditions | viscosity [mPa·s]
x1 = 1 | 0.544

ClCCl + CCCC[n+]1ccn(C)c1.O=S(=O)([N-]S(=O)(=O)C(F)(F)F)C(F)(F)F
Conditions | electrical conductivity [S/m] | viscosity [mPa·s]
x1 = 0.0175 | 0.453 | –
x1 = 0.1758 | – | 33.7
x1 = 0.243 | 0.454 | –
x1 = 0.3232 | – | 21.8
x1 = 0.3949 | 0.464 | –
x1 = 0.4152 | 0.539 | –
x1 = 0.4391 | – | 15.41
x1 = 0.4625 | 0.586 | –
x1 = 0.4718 | 0.634 | –
x1 = 0.5413 | 0.657 | –
x1 = 0.5646 | – | 10.01
x1 = 0.6165 | 1.08 | –
x1 = 0.6861 | 1.18 | –
x1 = 0.7283 | – | 4.25
x1 = 0.7345 | 1.33 | –
x1 = 0.7725 | 1.47 | –
x1 = 0.7751 | 1.37 | –
x1 = 0.776 | 1.47 | –
x1 = 0.8389 | 1.46 | –
x1 = 0.9008 | 1.21 | –
x1 = 0.9319 | 0.95 | –
x1 = 0.9506 | 0.739 | –
x1 = 0.9696 | 0.46 | –
x1 = 1 | – | 0.433
x2 = 0.0163 | 0.242 | –
x2 = 0.0187 | 0.287 | –

CCCC[n+]1ccn(C)c1.O=S(=O)([N-]S(=O)(=O)C(F)(F)F)C(F)(F)F + CO
Conditions | electrical conductivity [S/m] | viscosity [mPa·s]
x1 = 0.0104 | 0.94 | –
x1 = 0.0197 | – | 0.71
x2 = 0 | – | 50.4
x2 = 0.0302 | 0.524 | 46.2
x2 = 0.0942 | 0.509 | –
x2 = 0.1177 | 0.549 | –
x2 = 0.1279 | 0.509 | –
x2 = 0.1577 | – | 35.8
x2 = 0.16 | – | 34.2
x2 = 0.1706 | 0.514 | –
x2 = 0.2298 | – | 28.8
x2 = 0.3938 | 0.651 | –
x2 = 0.432 | 0.99 | –
x2 = 0.5555 | 1.18 | –
x2 = 0.6132 | 1.74 | –
x2 = 0.6242 | – | 8.27
x2 = 0.662 | 1.89 | –
x2 = 0.6647 | 1.96 | –
x2 = 0.7009 | 2.12 | –
x2 = 0.7546 | 2.28 | –
x2 = 0.7799 | 2.29 | –
x2 = 0.7983 | 2.45 | –
x2 = 0.8188 | 2.49 | –
x2 = 0.8248 | – | 2.61
x2 = 0.8272 | 2.51 | –
x2 = 0.8805 | 2.58 | –
x2 = 0.8953 | – | 1.47
x2 = 0.9305 | 2.42 | –
x2 = 0.9462 | 2.23 | –
x2 = 0.9721 | 1.73 | –

CCCC[n+]1ccn(C)c1.O=S(=O)([N-]S(=O)(=O)C(F)(F)F)C(F)(F)F + O
Conditions | electrical conductivity [S/m] | viscosity [mPa·s]
x2 = 0.0012 | 0.416 | –
x2 = 0.0014 | 0.412 | –
x2 = 0.0053 | 0.412 | –
x2 = 0.0135 | 0.431 | –
x2 = 0.0273 | 0.444 | –
x2 = 0.0442 | – | 46.9
x2 = 0.0533 | 0.444 | –
x2 = 0.0737 | 0.466 | –
x2 = 0.0832 | – | 42.8
x2 = 0.1171 | 0.494 | –
x2 = 0.1253 | – | 37.2
x2 = 0.1429 | – | 35.4
x2 = 0.1439 | 0.52 | –
x2 = 0.1721 | – | 36
x2 = 0.1733 | 0.549 | –
x2 = 0.2119 | 0.583 | –
x2 = 0.2222 | – | 33.1
x2 = 0.2436 | 0.61 | –
x2 = 0.2523 | 0.599 | –
x2 = 0.2556 | – | 31
x2 = 0.2559 | 0.614 | –

Source: a compilation of properties of binary mixtures (doi:10.1021/jp2012254)
